Test results from patent US6455057B1, “Skin care composition” (Elizabeth Arden Co., div. of Conopco, Inc., priority 1999, dated 2002).
Where “and” joins values, the source holds several entries; their conditions need not be identical. Equal entries are not always repeated.

Tests used:
Format in all cases: cell-based
[1] = tested on: ICAM production by human skin fibroblasts; assay: Fibroblast ICAM-1 assay (PMA-induced)
Protocol: Intracellular adhesion molecules (ICAM) and PEG2 production by human skin fibroblasts can be induced by the inflammatory stimulus PMA (phorbal myristate acetate). PMA represents an external stressor which induces oxidative stress and inflammatory responses in cells.
Primary human foreskin fibroblasts at passage 2 (P2) were seeded into 96-well plates at 10000 cells/well and maintained for 24 hours in an atmosphere of 5% carbon dioxide in Dulbeccos Modified Eagles Medium (DMEM) supplemented with 10% foetal calf serum. The test substances as indicated in the table 2 below were added to fresh cell media (DMEM, supplemented with 10% foetal calf serum) in dimethylsulphoxide and ethanol final concentration<1%) in triplicate and incubated for a further 24 hours. Phorbal myristate acetate (PMA) (Sigma) was added 10 nM to the media and the cells incubated for a further 24 hours. […] The fibroblasts/media were then analysed as described below immediately or snap frozen in liquid nitrogen and stored at −70° C. for future analysis. The cells were then counted and data from the dot-blot analysis subsequently standardised to cell number.
Media were discarded and cells washed with Dulbecco PBS. To the washed cells, 150 μl 0.1% Triton X-100 (Sigma) was added for 3 minutes to extract ICAM from cell membrane. The extracts were transferred to Eppendoff centrifuge tubes and centrifuged at 1000 g for 2 min to remove cell debris. A volume of 100 μl supernatant was used for ICAM assay. The soluble ICAM-1 was assessed with commercially available immunoenzymometric assay kit (R&D Systems). Concentrations of ICAM-1 in the samples were determined based on parallel running standard curve.

[2] = tested on: decorin synthesis in human dermal fibroblasts; assay: Dot blot assay for decorin protein in dermal fibroblast conditioned medium
Protocol: (§1) Primary human foreskin fibroblasts at passage 2 (P2) were seeded into 12-well plates at 10000 cells/cm^2 and maintained for 24 hours in an atmosphere of 5% carbon dioxide and 4% oxygen in Dulbeccos Modified Eagles Medium (DMEM) supplemented with 10% foetal calf serum. After this time the cells were washed with serum free DMEM and then incubated in fresh serum free DMEM for a further 60 hours. The fibroblast monolayers were then washed again with serum free DMEM. Test reagents and vehicle controls were added to the cells in triplicate in a final volume of 0.4 ml/well fresh serum free DMEM and incubated for a further 24 hours. This fibroblast conditioned medium was either analysed immediately or snap frozen in liquid nitrogen and stored at −70° C. for future analysis. The cells were then counted and data from the dot-blot analysis subsequently standardised to cell number.
(§2) Samples of conditioned medium from dermal fibroblasts treated with vehicle (as a control) or test reagents were supplemented with 20 mM dithiothreitol (1:10 dilution of 200 mM stock solution) and 0.1% sodium dodecylsulphate (1:100 dilution of 10% stock solution), mixed well and then incubated at 75° C. for 2 minutes. A standard for the assay was generated by serial dilution of neat fibroblast conditioned medium from fibroblasts seeded at 10000 cells/cm^2 in a 175 cm^2 flask and maintained in serum free DMEM as described above.
Assay samples were subsequently applied in triplicate to a prewetted sheet of Immobilon-P transfer membrane using the 96-well Bio-Dot Apparatus from Bio-Rad as described in the manufacturers guidelines. Approximately 200 μl of medium was applied per well. The medium was allowed to filter through the membrane under gravity (30 minutes) after which the membrane was washed twice with PBS (200 μl). These PBS washes were allowed to filter through the membrane under gravity (2×15 minutes). The Bio-Dot apparatus was then attached to a vacuum manifold and a third and final PBS wash carried out under suction. The apparatus was disassembled, the membrane removed and quickly cut as required before being placed in blocking buffer overnight at 4° C. Membranes prepared for decorin analysis were blocked with 3% (w/v) BSA/0.1% (v/v) Tween 20 in PBS, whilst those for procollagen-I analysis were blocked with 5% (w/v) non fat dried milk powder/0.05% Tween 20 in PBS.
Following this the Immobilon strips were again washed with TBS/Tween 20 (3×5 minutes) before being allowed to dry in air at room temperature. The dried membranes were wrapped in cellophane and exposed to a Molecular Dynamics storage phosphor screen for 16-18 hours. At the end of this time the exposed screen was scanned by a phosphorimager (Molecular Dynamics Phosphorimager SF) using ImageQuant™ software. Dot intensity was assessed by computer-assisted image analysis using the quantification tools in ImageQuant™, standardised to cell number and the effects of various test reagents on decorin and procollagen-I synthesis were determined relative to a vehicle treated control value of 100 arbitrary units.

[3] = tested on: procollagen-I synthesis in human dermal fibroblasts; assay: Dot blot assay for procollagen-I protein in dermal fibroblast conditioned medium; settings: vehicle control = 100
Protocol: as §1, §2
Assay samples were subsequently applied in triplicate to a prewetted sheet of Immobilon-P transfer membrane using the 96-well Bio-Dot Apparatus from Bio-Rad as described in the manufacturers guidelines. Approximately 200 μl of medium was applied per well. The medium was allowed to filter through the membrane under gravity (30 minutes) after which the membrane was washed twice with PBS (200 μl). These PBS washes were allowed to filter through the membrane under gravity (2×15 minutes). The Bio-Dot apparatus was then attached to a vacuum manifold and a third and final PBS wash carried out under suction. The apparatus was disassembled, the membrane removed and quickly cut as required before being placed in blocking buffer overnight at 4° C. […]
Following this the Immobilon strips were again washed with TBS/Tween 20 (3×5 minutes) before being allowed to dry in air at room temperature. […] Dot intensity was assessed by computer-assisted image analysis using the quantification tools in ImageQuant™, standardised to cell number and the effects of various test reagents on decorin and procollagen-I synthesis were determined relative to a vehicle treated control value of 100 arbitrary units.

[4] = tested on: PGE2 production by human skin fibroblasts; assay: Fibroblast PGE2 assay (PMA-induced); settings: PMA 10 nM + genistein 1 μM, read-out: % of Inhibition Of Fibroblast PGE2 Levels
Protocol: Primary human foreskin fibroblasts at passage 2 (P2) were seeded into 96-well plates at 10000 cells/well and maintained for 24 hours in an atmosphere of 5% carbon dioxide in Dulbeccos Modified Eagles Medium (DMEM) supplemented with 10% foetal calf serum. The test substances as indicated in the table 2 below were added to fresh cell media (DMEM, supplemented with 10% foetal calf serum) in dimethylsulphoxide and ethanol final concentration<1%) in triplicate and incubated for a further 24 hours. Phorbal myristate acetate (PMA) (Sigma) was added 10 nM to the media and the cells incubated for a further 24 hours. […] The fibroblasts/media were then analysed as described below immediately or snap frozen in liquid nitrogen and stored at −70° C. for future analysis.
Volumes of 50 μl culture medium were taken for PGE2 assay after gently shaking the culture plate. PGE2 levels in the medium were determined with a Biotrak PGE2 immunoassay kit (Amersham, UK). The assay is based on the competition between unlabelled PGE2 in the sample and a fixed quantity of horseradish peroxidase labelled PGE2 for a limited amount of fixed PGE2 specific antibody. Concentrations of unlabelled sample PGE2 are determined according to a standard curve which was obtained at the same time.

Q: What does the source list for O=C(O[C@@H]1Cc2c(O)cc(O)cc2O[C@@H]1c1cc(O)c(O)c(O)c1)c1cc(O)c(O)c(O)c1 [EGCG, epigallocatechin gallate]?
A: % of inhibition of fibroblast ICAM production ([1]; PMA 10 nM + EGCG 10 μM): 14.4%; Decorin ([2]; 0.005 μg/ml EGCG, vehicle control = 100): 118.4%; Decorin ([2]; 0.05 μg/ml EGCG, vehicle control = 100): 111.7%; Decorin ([2]; 0.5 μg/ml EGCG, vehicle control = 100): 120.2%

Q: CCCCCCCCCCC/C=C\CCCCC(=O)O [PA, petroselinic acid] was tested. Which Decorin ([2]; 0.01 μM PA, relative to vehicle treated control = 100 arbitrary units, separate experiments) did it give?
A: 102.7% and 100.9% and 95.08% and 93.97% and 93.7% and 91.6%

Q: And the Decorin ([2]; 0.1 μM PA, vehicle control = 100)?
A: 100.3%

Q: And the Procollagen-I ([3]; 0.01 μM PA)?
A: 117.34%

Q: What about the Procollagen-I ([3]; 0.1 μM PA) of the same molecule?
A: 90.94%

Q: Which results are given for O=c1c(-c2ccc(O)cc2)coc2cc(O)ccc12 [daidzein]?
A: Decorin ([2]; 0.01 μM daidzein, vehicle control = 100): 92.83%; Procollagen-I ([3]; 0.01 μM daidzein): 96.04%

Q: How did the Decorin ([2]; 0.001 μg/ml gallic acid, vehicle control = 100) turn out when O=C(O)c1cc(O)c(O)c(O)c1 [gallic acid] was run?
A: 96.6%

Q: What does the source list for O=c1c(-c2ccc(O)cc2)coc2cc(O)cc(O)c12 [genistein]?
A: inhibition at 1 µM ([1]; Homo sapiens, Skin fibroblast, PMA 10 nM + genistein 1 μM): 30.6%; Decorin ([2]; 1 μM genistein, vehicle control = 100): 99.75%; Procollagen-I ([3]; 1 μM genistein): 101.74%; inhibition at 1 µM [4]: 86.2%

Q: With O=c1c(O)c(-c2ccc(O)c(O)c2)oc2cc(O)cc(O)c12 [quercetin] as the molecule, how does the inhibition at 10 µM ([1]; Homo sapiens, Skin fibroblast, PMA 10 nM + quercetin 10 μM) read?
A: 27.8%

Q: And the Decorin ([2]; 1 μM quercetin, vehicle control = 100)?
A: 97.60%
